Results from ChEMBL document CHEMBL5356955, “Thiamine analogues featuring amino-oxetanes as potent and selective inhibitors of pyruvate dehydrogenase” (Bioorg Med Chem Lett, 2024).

Key:
[1] = Stability of the compound assessed as compound remaining in 1 M aqueous HCl at 37 degreeC incubated for 2 hrs by NMR analysis; type: physicochemical; settings: read-out: Stability
[2] = Stability of the compound assessed as compound remaining in 0.1M aqueous phosphate buffer at pH 7.4 incubated for 2 hrs by NMR analysis; type: physicochemical; settings: read-out: Stability
[3] = biological target: T1, Pyruvate dehydrogenase E1 component subunit alpha, somatic form, mitochondrial (Sus scrofa) (UniProt P29804); assay: Binding affinity to porcine PDHc E1-subunit assessed as KM(TPP)/Ki ratio incubated for 30 mins followed by pyruvate addition by microplate reader analysis
T1 sequence (whole entry): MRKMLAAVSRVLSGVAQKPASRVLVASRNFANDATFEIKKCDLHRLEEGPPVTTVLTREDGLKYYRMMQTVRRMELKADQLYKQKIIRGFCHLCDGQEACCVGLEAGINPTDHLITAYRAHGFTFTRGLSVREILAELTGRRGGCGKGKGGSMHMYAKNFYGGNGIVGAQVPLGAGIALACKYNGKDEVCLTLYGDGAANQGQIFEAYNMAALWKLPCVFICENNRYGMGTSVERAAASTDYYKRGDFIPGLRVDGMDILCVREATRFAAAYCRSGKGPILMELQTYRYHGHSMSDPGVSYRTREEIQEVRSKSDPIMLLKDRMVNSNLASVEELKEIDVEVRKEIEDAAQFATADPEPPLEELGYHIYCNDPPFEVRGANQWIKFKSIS

[4] = Permeability of the compound assessed as absorbed fraction by PAMPA assay; type: ADME
[5] = Stability of the compound assessed as compound remaining in 0.1 M aqueous K2CO3 incubated for 1 hr by NMR analysis; type: physicochemical; settings: read-out: Stability
[6] = Stability of the compound assessed as porcine liver esterase mediated compound degradation by measuring compound recovery at 0.05 mmol measured after 30 mins by NMR analysis; type: ADME, Sus scrofa; settings: pig, read-out: Stability
[7] = Stability of the compound assessed as compound remaining in 1 M aqueous NaOH at 37 degreeC incubated for 2 hrs by NMR analysis; type: physicochemical; settings: read-out: Stability
[8] = biological target: T2, Pyruvate dehydrogenase E1 component subunit alpha, somatic form, mitochondrial (Sus scrofa, UniProt P29804); assay: Inhibition of porcine PDHc E1-subunit incubated for 30 mins followed by pyruvate addition in presence of thiamine pyrophosphate by microplate reader analysis
T2 sequence (P29804 whole entry): T1 sequence (whole entry)

[9] = Thermal stability of the compound assessed as compound remaining in DMSO at 70 degreeC incubated for 2 hrs by NMR analysis; type: physicochemical; settings: read-out: Stability
[10] = biological target: T1, Pyruvate dehydrogenase E1 component subunit alpha, somatic form, mitochondrial (Sus scrofa); assay: Inhibition of porcine PDHc E1-subunit at 10 uM at 1:5 compound: thiamine pyrophosphate ratio incubated for 30 mins followed by pyruvate addition by microplate reader analysis relative to control
[11] = biological target: T1, Pyruvate dehydrogenase E1 component subunit alpha, somatic form, mitochondrial (Sus scrofa); assay: Inhibition of porcine PDHc E1-subunit at 10 uM at 1:1 compound: thiamine pyrophosphate ratio incubated for 30 mins followed by pyruvate addition by microplate reader analysis relative to control
[12] = biological target: T2, Pyruvate dehydrogenase E1 component subunit alpha, somatic form, mitochondrial; assay: Binding affinity to porcine PDHc E1-subunit assessed as inhibition constant incubated for 30 mins followed by pyruvate addition by microplate reader analysis
[13] = Metabolic stability of the compound assessed as porcine liver esterase mediated hydrolysis at pH 7.4 measured after 4 hrs by UPLC analysis; type: ADME, Sus scrofa; settings: pig, isolated protein, pH 7.4, 4 h
[14] = Drug metabolism in porcine liver esterase assessed as 2-(4-((4-amino-2-methylpyrimidin-5-yl)methyl)-3-methylthiophen-2-yl)ethan-1-ol formation at pH 7.4 measured after 4 hrs; type: ADME, Sus scrofa; settings: pig, pH 7.4, 4 h

Ratio [3]	permeability [4] [%]	IC50 [8] [nM]	inhibition [10] [%]	inhibition [11] [%]	Ki [12] [nM]	SMILES	also measured
0.29	26	35000	< 10	22	175	COc1ccc(C(=O)NCCc2cn(Cc3cnc(C)nc3N)nn2)cc1	
		3000				Cc1ncc(Cn2cc(CCOC(=O)c3cccnc3)nn2)c(N)n1	
		66000				Cc1ncc(Cn2cc(CCNC(=O)c3ccc(Cl)cc3)nn2)c(N)n1	
		9200				Cc1ncc(Cc2coc(CCNC(=O)c3ccc(Cl)cc3)c2)c(N)n1	
1.59	31	6300	25	63	31.5	COc1ccc(C(=O)OCCc2cn(Cc3cnc(C)nc3N)nn2)cc1	

The remaining lines, values behind:

SMILES	Ratio [3]	permeability [4] [%]	IC50 [8] [nM]	inhibition [10] [%]	inhibition [11] [%]	Ki [12] [nM]	also measured
COc1ccc(C2(NCCc3scc(Cc4cnc(C)nc4N)c3C)COC2)cc1	10.1	44	990	65	> 90	4.95	remaining at 2 h [1]: 22%; remaining at 2 h [2]: > 90%; remaining at 1 h [5]: > 90%; remaining at 0.5 h [6]: > 90%; remaining at 2 h [7]: > 90%; remaining at 2 h [9]: > 90%; Stability [13]: Stable
COc1ccc(C(=O)NCCc2scc(Cc3cnc(C)nc3N)c2C)cc1	1.96	35	5100	28	65	25.5	Stability [13]: Stable
Cc1ncc(Cc2coc(CCOC(=O)c3ccc(Cl)cc3)c2)c(N)n1			3300				
COc1ccc(C(=O)OCCc2scc(Cc3cnc(C)nc3N)c2C)cc1	11.2	39	890	72	> 90	4.45	Drug metabolism [14]: Metabolite_Detected; remaining at 2 h [1]: 43%; remaining at 2 h [2]: > 90%; remaining at 1 h [5]: 31%; remaining at 0.5 h [6]: < 10%; remaining at 2 h [7]: 15%; remaining at 2 h [9]: > 90%; Stability [13]: Unstable
Cc1ncc(Cn2cc(CCO)nn2)c(N)n1			30000			150	
COc1ccc(C(=O)OCC[C@H]2SCN(Cc3cnc(C)nc3N)[C@H]2C)cc1 (racemic)	2.86		3500			17.5	
Cc1ncc(Cc2csc(CCO)c2C)c(N)n1 [3-DEAZATHIAMINE]	2.78		3600			18	
COc1ccc(C2(NCCc3cn(Cc4cnc(C)nc4N)nn3)COC2)cc1	1.28	35	7800	20	58	39	
Cc1ncc(Cc2coc(CCNC(=O)c3cccnc3)c2)c(N)n1			2500				
Cc1ncc(CN2CS[C@H](CCO)[C@@H]2C)c(N)n1 (racemic)	0.48		21000			105	
